Earlier results, collected in patent publication US10634592B2, “Process for microextraction and detection of an analyte” (KING FAHD UNIVERSITY OF PETROLEUM AND MINERALS, priority 2015, dated 2020).

Tested on: not given
Settings: octanol-water partition coefficient
For `ClC(Cl)Br` [BDCM, bromodichloromethane], the “log Kow” value is listed as 1.88. In the case of `CC(=O)C(Cl)(Cl)Cl` [TCP, 1,1,1-trichloro-2-propanone], the “log Kow” value is listed as 1.12. For `CC(=O)C(Cl)Cl` [DCP, 1,1-dichloro-2-propanone], the “log Kow” value is listed as 0.20. For `ClC(Cl)Cl` [TCM, trichloromethane], the “log Kow” value is listed as 1.97. In the case of `BrC(Br)Br` [TBM, tribromomethane], the “log Kow” value is listed as 2.38. In the case of `ClC(Br)Br` [DBCM, dibromochloromethane], the “log Kow” value is given as 2.08.

Tested on: cellular glutathione levels
Settings: prior to cytotoxic effects
For `CC(=O)C(Cl)Cl` [DCP, 1,1-dichloro-2-propanone], the “Effect on cellular glutathione levels” value is given as “reduce cellular glutathione levels”.
